# Data taken from patent US20110294794A1, “TREATMENT OF PROTEINOPATHIES USING A FARNESYL TRANSFERASE INHIBITOR” (Link Medicine Corporation, priority 2008, published 2011).
# “Also recorded” adds a separate entry of the source.
# What was measured:
# LC3-II = LC3-II protein level (autophagic flux) in SH-SY5Y cells with or without bafilomycin A1; assay type: cell-based, human
# Source text: Data are represented as mean+/−SEM with statistical significance by paired student's t-test (n=4, p<0.05).
# The observed increase in LC3-positive autophagosomes could result, in principle, from either an increased flux through the autophagy pathway or decreased autophagosome degradation (Pankiv, S., et al. J Biol Chem 282, 24131-24145 (2007); Kamada, Y., et al. J Cell Biol 150, 1507-1513 (2000)). […] In order to ascertain an increase in autophagic flux, cells were co-treated with LNK-754-TS and an inhibitor of autophagosome-lysosome fusion, bafilomycin A1 (10 nM). Bafilomycin treatment alone caused a 100% increase in the amount of LC3-II, consistent with the fact that it inhibits autophagosome degradation (FIG. 8c).
# (§1) The mechanism of autophagy stimulation by LNK-754-TS appears distinct from that of the drug rapamycin. Rapamycin is a well-characterized autophagy stimulator that acts through inhibition of mTOR, a kinase involved in nutrient signaling and regulation of cell growth and survival. […] To further contrast the mechanism of autophagy stimulation by LNK-754-TS to that of rapamycin, a collection of mRNA transcripts of autophagy proteins were measured (FIG. 8d). Selected mRNAs from untreated SH-SY5Y cells were compared to mRNAs from cells treated with LNK-754-TS (100 nM), tipifarnib (100 nM), or rapamycin (1 μM).
# [1] = test system: 3T3 H-ras (61L) xenograft; conditions: BID for 10 days; cited from earlier work
# p70 S6 kinase (S6K) = experiment: p70S6K phosphorylation in SH-SY5Y cells; assay type: cell-based, human; conditions: FIG. 8f
# p62 mRNA = p62 mRNA in SH-SY5Y cells; assay type: cell-based, human; conditions: 100 nM (FIG. 8e)
# Procedure: (§2) Quantitative real-time PCR: Gene expression profiles were done by qPCR on series of known autophagy genes. RNA was extracted with Tri-reagent (Sigma), and cDNAs generated using iScript (Biorad). qPCR analysis was carried out in a 96 well plate using an iCycler (BioRad, Hercules, Calif.), and iQ SYBR Green Supermix (Biorad) according to the manufacturer's specifications.
# LC3 mRNA = LC3 mRNA (qPCR) in differentiated SH-SY5Y cells; assay type: cell-based, human
# Procedure: Cell culture and immunocytochemistry: SH-SY5Y cells were grown in DMEM medium supplemented with 10% FBS and 1% pen/strep at 37° C. and 5% CO2. Cells were differentiated with 10 μM retinoic acid for 48 hr, then treated with the either rapamycin (100 nM or 1 μM) or with 100 nM of either LNK-754-TS or Tipifarnib for 48-72 hr. Cells were then fixed with 4% paraformaldehyde and stained for LC3 (Novus biological, NB100-2331, dilution 1:800) followed by secondary Alexa-564 anti-Rabbit (A-11011).
# as §2
# Such increases in LC3 mRNA levels are associated in the literature with stimulation of macroautophagy. This supports the hypothesis that at doses as low as 1 nM in this in vitro system there is stimulation of autophagy in these cells.
# Autophagy was measured in a neuroblastoma cell culture system by three distinct approaches: quantitation of autophagy-related mRNA's, immunofluorescence microscopy of autophagosomes, and biochemical detection of the microtubule-associated protein 1 light chain 3 (LC3) a key protein that is required for autophagosome formation. Differentiated human neuroblastoma cells (SH-SY5Y) were treated for 72 hr with LNK-754-TS (0.01-100 nM), Zarnestra® (also referred to herein as tipifarnib) (100 nM) or rapamycin (1 μM).
# Atg1 = experiment: mRNA levels of autophagy-related genes (Atg1) in SH-SY5Y cells; assay type: cell-based, human; conditions: 100 nM (FIG. 8d)
# Procedure: as §2, §1
# TAU441 transgenic mice = experiment: Porsolt forced swim task in TAU441 transgenic mice; assay type: in vivo, mouse
# Source text: Tests relevant to depression-like behaviors in rodents are primarily stress-induced reductions in avoidance or escape, termed behavioral despair. One of the most widely used animal tests for depression is the Porsolt forced swim task (Porsolt et al., Arch. Int. Pharmacodyn. Ther. 229(2):327-36, 1977; Porsolt et al., Eur. J. Pharmacol. 47(4):379-91, 1978). This study was designed to evaluate the effects of treatment with LNK-754 on behavior of TAU441 transgenic mice. At start of the treatment, the animals were 5 months old. Untreated non-transgenic animals of the same age were tested and sacrificed serving as the baseline group. Mice received vehicle or LNK-754-TS at a dose of 0.09 mg per kg, 7 days a week for 90 days. In the last week of the treatment period and before sacrifice, mice were evaluated using the Porsolt forced swim task (FIG. 10B).
# [2] = 0.09 mg/kg once every 24 hr, 90 days
smiles,measurement,setting,value
"C#Cc1cccc(-c2cc(=O)n(C)c3ccc([C@](O)(c4ccc(Cl)cc4)c4cncn4C)cc23)c1 [LNK-754-TS, (R)-6-[(4-chlorophenyl)-hydroxyl-(1-methyl-1-H-imidazol-5-yl)-methyl]-4-(3-ethynylphenyl)-1-methyl-2-(1H)-quinonlinone (2S,3S)-dihydroxybutanedioate]",LC3-II protein level,LC3-II; 100 nM in the presence of Bafilomycin A1 (10 nM),increased
same,accumulation of LC3-I or LC3-II,"LC3-II; treatment alone, without bafilomycin",did not cause accumulation
same,dose required for suppression of tumor growth,[1],at least 25 mg per kg
same,decrease / inhibition of p70S6K phosphorylation,p70 S6 kinase (S6K),did not inhibit
same,p62 mRNA,p62 mRNA,upregulation; also recorded: increased
same,LC3 mRNA level,"LC3 mRNA; 0.01-100 nM, 72 hr (FIG. 8a)",upregulated; also recorded: increased
same,potency of LC3 transcript upregulation relative to the other two compounds,"LC3 mRNA; 72 hr, vs. Zarnestra and rapamycin",most potently
same,levels of mRNA of LC3,"LC3 mRNA; doses between 1 and 100 nM, 72 hours (FIG. 4)",significant increases
same,mRNA levels of a set of autophagy-related genes,Atg1,unaffected
same,depressed phenotype,TAU441 transgenic mice; 0.09 mg/kg once every 24 hours,significantly ameliorated
same,floating behavior vs. vehicle,TAU441 transgenic mice; [2],significantly less; also recorded: decreasing; also recorded: decreased
same,forced swim behavior compared with non-transgenic mice,TAU441 transgenic mice; [2],behaved similar to non-transgenic mice; also recorded: behaved similarly to non-tg mice; also recorded: levels equivalent to that seen in non-transgenic mice
same,struggling behavior vs. vehicle,TAU441 transgenic mice; [2],higher percentage; also recorded: increasing; also recorded: significantly increased
